{
  "source": "patent EP3041353B1",
  "about": "“COMPOSITIONS COMPRISING BACTERIOSTATIC AGENTS AND BRILLIANT BLUE G” (priority 2013, dated 2015)",
  "key": {"[1]": {"tested_on": "Escherichia coli (E. coli)", "assay": "Bacteriostatic effect of BAK with BBG/BBR: turbidity after 24 h incubation", "format": "cell-based", "parameters": "key to Bakterienwachstum nach 24 h Inkubation: +: Bakterienwachstum nach 24 h Inkubation; -: kein Bakterienwachstum nach 24 h Inkubation", "method": "(§1) Zur Untersuchung des Einflusses von BBG auf die bakteriostatische Wirkung wurden Bakterien 24 h mit erfindungsgemäßen Zusammensetzungen, Benzalkoniumchlorid (BAK) und Octenidin (Oct) als Bakteriostatikum enthielten, inkubiert. Wenn sich die Inkubationsmischung trübte, wurde das als Bakterienwachstum interpretiert. Zum Vergleich wurde Brillantblau R (BBR) anstelle von BBG eingesetzt. Die Ergebnisse sind in den Tabellen 1-4 wiedergegeben. Tabelle 1: Einfluss von BBG und BBR auf die bakteriostatische Wirkung von BAK gegenüber Escherichia coli (E. coli), + = Bakterienwachstum nach 24 h Inkubation, - = kein Bakterienwachstum nach 24 h Inkubation, R = Brillantblau R (BBR), G = Brillantblau G (BBG)."}, "[2]": {"tested_on": "Bacillus sp.", "assay": "Bacteriostatic effect of BAK with BBG/BBR: turbidity after 24 h incubation", "format": "cell-based", "parameters": "key to Bakterienwachstum nach 24 h Inkubation: +: Bakterienwachstum nach 24 h Inkubation; -: kein Bakterienwachstum nach 24 h Inkubation", "method": "as §1\nTabelle 2: Einfluss von BBG und BBR auf die bakteriostatische Wirkung von BAK gegenüber Bacillus sp., + = Bakterienwachstum nach 24 h Inkubation, - = kein Bakterienwachstum nach 24 h Inkubation, R = Brillantblau R (BBR), G = Brillantblau G (BBG)."}, "[3]": {"biological_target": "T1, P2X7-Rezeptor (Rattus norvegicus, UniProt Q64663)", "T1 sequence (Q64663 1-595)": "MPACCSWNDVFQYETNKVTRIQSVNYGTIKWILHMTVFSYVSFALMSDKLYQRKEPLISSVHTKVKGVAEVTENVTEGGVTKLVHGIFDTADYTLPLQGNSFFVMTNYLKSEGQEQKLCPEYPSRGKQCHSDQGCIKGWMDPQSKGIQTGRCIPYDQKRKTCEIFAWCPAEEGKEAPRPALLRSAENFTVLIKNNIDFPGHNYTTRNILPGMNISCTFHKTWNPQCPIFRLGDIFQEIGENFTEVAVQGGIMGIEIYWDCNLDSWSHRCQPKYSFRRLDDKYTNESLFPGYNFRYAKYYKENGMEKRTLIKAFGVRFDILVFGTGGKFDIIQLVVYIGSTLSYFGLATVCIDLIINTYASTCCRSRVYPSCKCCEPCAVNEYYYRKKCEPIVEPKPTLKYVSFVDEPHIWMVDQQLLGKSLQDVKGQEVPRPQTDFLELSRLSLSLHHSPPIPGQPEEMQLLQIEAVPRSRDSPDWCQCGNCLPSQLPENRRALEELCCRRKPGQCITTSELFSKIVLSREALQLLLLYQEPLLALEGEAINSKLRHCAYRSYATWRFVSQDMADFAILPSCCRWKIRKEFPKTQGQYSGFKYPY", "details": "Jiang et al. 2000; cited from earlier work"}, "[4]": {"tested_on": "Bacillus megaterium", "assay": "Bacteriostatic effect of Octenidin with BBG: turbidity after 24 h incubation", "format": "cell-based", "parameters": "key: +: Bakterienwachstum nach 24 h Inkubation; -: kein Bakterienwachstum nach 24 h Inkubation; +/-: geringes Wachstum nach 24 h Inkubation", "method": "as §1\nTabelle 4: Einfluss von BBG auf die bakteriostatische Wirkung von Octenidin (Oct) gegenüber Gram-positiven Bakterien., + = Bakterienwachstum nach 24 h Inkubation, - = kein Bakterienwachstum nach 24 h Inkubation, +/- = geringes Wachstum nach 24 h Inkubation, BBG = Brillantblau G."}},
  "data": [
    {"smiles": "CCOc1ccc(Nc2ccc(C(=C3C=CC(=[N+](CC)Cc4cccc(S(=O)(=O)[O-])c4)C=C3C)c3ccc(N(CC)Cc4cccc(S(=O)(=O)O)c4)cc3C)cc2)cc1", "note": "[BBG, Brillantblau G]", "values": [
      {"measurement": "Bakterienwachstum nach 24 h Inkubation", "setting": "[1]; 0,007% G + BAK 0,01%", "value": "-"},
      {"measurement": "Bakterienwachstum nach 24 h Inkubation", "setting": "[1]; 0,007% G + BAK 0,001 %", "value": "+"},
      {"measurement": "Bakterienwachstum nach 24 h Inkubation", "setting": "[1]; 0,007% G + BAK 0,0016%", "value": "+"},
      {"measurement": "Bakterienwachstum nach 24 h Inkubation", "setting": "[1]; 0,007% G + BAK 0,0025%", "value": "+"},
      {"measurement": "Bakterienwachstum nach 24 h Inkubation", "setting": "[1]; 0,007% G + BAK 0,004%", "value": "-"},
      {"measurement": "Bakterienwachstum nach 24 h Inkubation", "setting": "[1]; 0,007% G + BAK 0,006%", "value": "-"},
      {"measurement": "Bakterienwachstum nach 24 h Inkubation", "setting": "[1]; 0,015% G + BAK 0,01%", "value": "-"},
      {"measurement": "Bakterienwachstum nach 24 h Inkubation", "setting": "[1]; 0,015% G + BAK 0,001 %", "value": "+"},
      {"measurement": "Bakterienwachstum nach 24 h Inkubation", "setting": "[1]; 0,015% G + BAK 0,0016%", "value": "+"},
      {"measurement": "Bakterienwachstum nach 24 h Inkubation", "setting": "[1]; 0,015% G + BAK 0,0025%", "value": "+"},
      {"measurement": "Bakterienwachstum nach 24 h Inkubation", "setting": "[1]; 0,015% G + BAK 0,004%", "value": "+"},
      {"measurement": "Bakterienwachstum nach 24 h Inkubation", "setting": "[1]; 0,015% G + BAK 0,006%", "value": "-"},
      {"measurement": "Bakterienwachstum nach 24 h Inkubation", "setting": "[1]; 0,030% G + BAK 0,01%", "value": "+"},
      {"measurement": "Bakterienwachstum nach 24 h Inkubation", "setting": "[1]; 0,030% G + BAK 0,001 %", "value": "+"},
      {"measurement": "Bakterienwachstum nach 24 h Inkubation", "setting": "[1]; 0,030% G + BAK 0,0016%", "value": "+"},
      {"measurement": "Bakterienwachstum nach 24 h Inkubation", "setting": "[1]; 0,030% G + BAK 0,0025%", "value": "+"},
      {"measurement": "Bakterienwachstum nach 24 h Inkubation", "setting": "[1]; 0,030% G + BAK 0,004%", "value": "+"},
      {"measurement": "Bakterienwachstum nach 24 h Inkubation", "setting": "[1]; 0,030% G + BAK 0,006%", "value": "+"},
      {"measurement": "Bakterienwachstum nach 24 h Inkubation", "setting": "[1]; 0,030% G, Kein BAK", "value": "+"},
      {"measurement": "Einfluss auf die bakteriostatische Wirkung von BAK", "setting": "[1]; Gram-negative Bakterien (E. coli), concentration dependent", "value": "einen etwas größeren Einfluss als BBR"},
      {"measurement": "Einfluss auf das Bakterienwachstum", "setting": "[1]; dye alone, no BAK (rechte Spalte, Tabelle 1)", "value": "beeinflussen das Bakterienwachstum nicht"},
      {"measurement": "Bakterienwachstum nach 24 h Inkubation", "setting": "[2]; 0.007% G + BAK 0.001%", "value": "-"},
      {"measurement": "Bakterienwachstum nach 24 h Inkubation", "setting": "[2]; 0.007% G + BAK 0.01%", "value": "-"},
      {"measurement": "Bakterienwachstum nach 24 h Inkubation", "setting": "[2]; 0.030% G, Kein BAK", "value": "+"},
      {"measurement": "Einfluss auf das Bakterienwachstum", "setting": "[2]; dye alone, no BAK (rechte Spalte, Tabelle 2)", "value": "beeinflussen das Bakterienwachstum nicht"},
      {"measurement": "Hemmung des P2X7-Rezeptors", "setting": "[3]", "value": "spezifisch nicht-kompetitiv hemmt"},
      {"measurement": "Bakterienwachstum nach 24 h Inkubation", "setting": "[4]; 0,015% BBG + Octenidin 0,003%", "value": "+/-"},
      {"measurement": "Bakterienwachstum nach 24 h Inkubation", "setting": "[4]; 0,030% BBG + Octenidin 0,005%", "value": "+/-"},
      {"measurement": "Bakterienwachstum nach 24 h Inkubation", "setting": "[4]; 0,030% BBG + Octenidin 0,007%", "value": "+/-"}
    ]}
  ]
}
